Data taken from patent US11147272B2, “Pyridone compounds and agricultural and horticultural fungicides comprising the same as active ingredients” (MITSUI CHEMICALS AGRO, INC., priority 2017, dated 2021).

What was measured:
[1] = test system: Blumeria graminis f. sp. hordei; assay: Test Example D: Powdery mildew on barley; conditions: for Test D control value class: class of control value
[2] = test system: Alternaia brassicicola; assay: Test Example C: Alternaria sooty spot on cabbage; assay type: in vivo; conditions: for Test C control value class: class of control value
Text: Seeds of a test plant (cabbage variety: Shikidori) were planted and cultivated until the cotyledons extended.
<Control Value> Control value=100{1−(n/3)}

[3] = test system: Magnaporthe grisea; assay: whole plant or invertebrate; assay type: in vivo; conditions: for Test A control value class: class of control value
[4] = test system: Puccinia recondita; assay: Test Example E: Brown rust on wheat; assay type: in vivo; conditions: for Test E control value class: class of control value
[5] = test system: Plasmopara viticola; assay: Test Example G: Downy mildew on vine; conditions: for Test G control value: 7 to 10 days after inoculation; for Test G control value class: Downy mildew on vine (Neomuscat), 2.5 ml/pot, assessed 7 to 10 days after inoculation
[6] = test system: Botrytis cinerea; assay: Test Example B: Gray mold on tomato; conditions: for Test B control value class: class of control value
[7] = test system: Phytophthora infestans; assay: whole plant or invertebrate; assay type: in vivo; conditions: for Test F control value class: class of control value
[8] = test system: Colletotrichum orbiculare; assay: Test Example H: Anthracnose on cucumber; conditions: for Test H control value: 6 to 10 days after inoculation; for Test H control value class: Anthracnose on cucumber (Sagami Hanjiro), 2.5 ml/pot, assessed 6 to 10 days after inoculation
[9] = Powdery mildew on barley, control value class
[10] = Alternaria sooty spot on cabbage, control value class
[11] = Blast on rice, control value class
[12] = Brown rust on wheat, control value class
[13] = Downy mildew on vine, 250 ppm spray
[14] = Gray mold on tomato, control value class
[15] = Late blight on tomato, control value class
[16] = Anthracnose on cucumber, 250 ppm spray
[17] = 250 ppm drug solution sprayed on test plant
[18] = 250 ppm drug solution sprayed (2.5 ml/pot), grape Neomuscat
[19] = 250 ppm drug solution sprayed (2.5 ml/pot), cucumber Sagami Hanjiro
[20] = Alternaria sooty spot on cabbage

CCc1ccc(=O)n(C)c1-c1ccc(F)cc1Br [compound 348]
L (50% or less control value): Test C control value [2, 10] | Test A control value [3, 11] | Test G control value [5, 13] | Test F control value [7, 15] | Test H control value [8, 16]
H (more than 50% control value): Test D control value [1, 9] | Test E control value [4, 12] | Test B control value [6, 14]

CCc1ccc(=O)n(CC)c1-c1ccc(F)cc1Br [compound 340]
H (more than 50% control value): Test D control value [1, 9] | Test C control value [2, 10] | Test E control value [4, 12] | Test B control value [6, 14]
L (50% or less control value): Test A control value [3, 11] | Test G control value [5, 13] | Test F control value [7, 15] | Test H control value [8, 16]

CCn1c(-c2c(F)cc(F)cc2F)c(C(C)(O)CC)ccc1=O (centres unmarked) [compound 481]
H (more than 50% control value): Test D control value [1, 17] | Test E control value [4, 17] | Test B control value [6, 17] | Test H control value [8, 19]
L (50% or less control value): Test C control value [2, 17] | Test A control value [3, 17] | Test G control value [5, 18] | Test F control value [7, 17]

C#Cc1cc(Cl)c(=O)n(CC)c1-c1c(F)cc(F)cc1F [compound 303]
H (more than 50% control value): Test D control value [1, 9] | Test C control value [2, 10] | Test E control value [4, 12] | Test B control value [6, 14] | Test H control value [8, 16]
L (50% or less control value): Test A control value [3, 11] | Test G control value [5, 13] | Test F control value [7, 15]

CCc1cc(Cl)c(=O)n(CC)c1-c1ccc(OC)cc1Br [compound 345]
L (50% or less control value): Test D control value [1, 9] | Test F control value [7, 15]
H (more than 50% control value): Test C control value [2, 10] | Test A control value [3, 11] | Test E control value [4, 12] | Test G control value [5, 13] | Test B control value [6, 14] | Test H control value [8, 16]

C=CCOc1ccc(-c2c(CC(C)C)cc(Cl)c(=O)n2CC)c(F)c1 [compound 124]
L (50% or less control value): Test G control value class ([5]; 250 ppm spray) | Test F control value class ([7]; Late blight on tomato)
H (more than 50% control value): Test D control value class ([1]; Powdery mildew on barley) | Test C control value class [2, 20] | Test A control value class ([3]; Blast on rice) | Test E control value class ([4]; Brown rust on wheat) | Test B control value class ([6]; Gray mold on tomato) | Test H control value class ([8]; 250 ppm spray)

CCn1c(-c2c(F)cc(F)cc2F)c(C(C)(C)C)cc(Br)c1=O [compound 70]
L (50% or less control value): Test G control value class ([5]; 250 ppm spray) | Test F control value class ([7]; Late blight on tomato)
H (more than 50% control value): Test D control value class ([1]; Powdery mildew on barley) | Test C control value class [2, 20] | Test A control value class ([3]; Blast on rice) | Test E control value class ([4]; Brown rust on wheat) | Test B control value class ([6]; Gray mold on tomato) | Test H control value class ([8]; 250 ppm spray)

CCn1c(-c2c(F)cc(F)cc2F)c(C=O)cc(Br)c1=O [compound 364]
H (more than 50% control value): Test C control value [2, 10] | Test E control value [4, 12] | Test G control value [5, 13] | Test B control value [6, 14]
L (50% or less control value): Test D control value [1, 9] | Test A control value [3, 11] | Test F control value [7, 15] | Test H control value [8, 16]

C=C(c1cc(Cl)c(=O)n(CC)c1-c1c(F)cc(F)cc1F)C(C)C [compound 243]
L (50% or less control value): Test G control value [5, 13] | Test F control value [7, 15]
H (more than 50% control value): Test D control value [1, 9] | Test C control value [2, 10] | Test A control value [3, 11] | Test E control value [4, 12] | Test B control value [6, 14] | Test H control value [8, 16]

CCn1c(-c2ccc(OC)cc2F)c(CC(C)C)cc(Br)c1=O [compound 116]
L (50% or less control value): Test F control value class ([7]; Late blight on tomato)
H (more than 50% control value): Test D control value class ([1]; Powdery mildew on barley) | Test C control value class [2, 20] | Test A control value class ([3]; Blast on rice) | Test E control value class ([4]; Brown rust on wheat) | Test G control value class ([5]; 250 ppm spray) | Test B control value class ([6]; Gray mold on tomato) | Test H control value class ([8]; 250 ppm spray)

CCC(C)(OC)c1cc(Cl)c(=O)n(C)c1-c1c(F)cc(F)cc1F (centres unmarked) [compound 508]
L (50% or less control value): Test F control value [7, 17]
H (more than 50% control value): Test D control value [1, 17] | Test C control value [2, 17] | Test A control value [3, 17] | Test E control value [4, 17] | Test G control value [5, 18] | Test B control value [6, 17] | Test H control value [8, 19]

CCn1c(-c2c(F)cc(F)cc2F)c(C(O)C(F)(F)F)cc(Cl)c1=O (centres unmarked) [Compound No. 515, 3-chloro-1-ethyl-5-(2,2,2-trifluoro-1-hydroxyethyl)-6-(2,4,6-trifluorophenyl)pyridin-2(1H)-one]
> 50%: pest or weed control at 250 ppm ([3]; Pyricularia oryzae, in Oryza sativa, read-out: Test A control value) | pest or weed control at 250 ppm ([4]; Puccinia recondita, topical, 250 ppm drug solution sprayed on test plant) | pest or weed control at 250 ppm ([5]; Plasmopara viticola, topical, 168 h, read-out: Test G control value) | pest or weed control at 250 ppm ([6]; Botrytis cinerea, in Solanum lycopersicum, topical, read-out: Test B control value) | pest or weed control at 250 ppm ([8]; Colletotrichum orbiculare, in Cucumis sativus, topical, 144 h, read-out: Test H control value)
< 50%: pest or weed control at 250 ppm ([1]; Blumeria graminis, in Hordeum vulgare, topical, read-out: Test D control value) | pest or weed control at 250 ppm ([2]; topical, 250 ppm drug solution sprayed on test plant) | pest or weed control at 250 ppm ([7]; Phytophthora infestans, in Solanum lycopersicum, topical, read-out: Test F control value)

CCn1c(-c2ccc(Br)cc2)c(CC(C)C)cc(Br)c1=O [compound 178]
L (50% or less control value): Test D control value class ([1]; Powdery mildew on barley) | Test A control value class ([3]; Blast on rice) | Test G control value class ([5]; 250 ppm spray) | Test F control value class ([7]; Late blight on tomato) | Test H control value class ([8]; 250 ppm spray)
H (more than 50% control value): Test C control value class [2, 20] | Test E control value class ([4]; Brown rust on wheat) | Test B control value class ([6]; Gray mold on tomato)

CCn1c(-c2c(F)cc(F)cc2F)c(C(C)(O)C(C)C)cc(Br)c1=O (centres unmarked) [compound 381]
H (more than 50% control value): Test D control value [1, 17] | Test C control value [2, 17] | Test A control value [3, 17] | Test E control value [4, 17] | Test G control value [5, 18] | Test B control value [6, 17] | Test F control value [7, 17] | Test H control value [8, 19]

CCCc1cc(Br)c(=O)n(CC)c1-c1c(F)cc(OCC)cc1F [compound 458]
L (50% or less control value): Test F control value [7, 17]
H (more than 50% control value): Test D control value [1, 17] | Test C control value [2, 17] | Test A control value [3, 17] | Test E control value [4, 17] | Test G control value [5, 18] | Test B control value [6, 17] | Test H control value [8, 19]

CCn1c(-c2c(F)cc(OC)cc2F)c(C(C)(CC)OC)cc(Cl)c1=O (centres unmarked) [compound 55]
L (50% or less control value): Test G control value class ([5]; 250 ppm spray) | Test F control value class ([7]; Late blight on tomato)
H (more than 50% control value): Test D control value class ([1]; Powdery mildew on barley) | Test C control value class [2, 20] | Test A control value class ([3]; Blast on rice) | Test E control value class ([4]; Brown rust on wheat) | Test B control value class ([6]; Gray mold on tomato) | Test H control value class ([8]; 250 ppm spray)
